In patent US20240190891A1, “PYRIDO OXAZINE AMINO DERIVATIVES AS ALK5 INHIBITORS” (CHIESI FARMACEUTICI S.P.A., priority 2020, published 2024) one finds IC50 data, which are given here for 22 compounds.

The first experiment concerns the target T1, human ALK5 (Homo sapiens, UniProt P36897).
T1 construct: human ALK5 (recombinant TGF β1 N-term GST-tagged, 80-end); GST (N); purchased
T1 sequence (P36897 80-503 limits assumed): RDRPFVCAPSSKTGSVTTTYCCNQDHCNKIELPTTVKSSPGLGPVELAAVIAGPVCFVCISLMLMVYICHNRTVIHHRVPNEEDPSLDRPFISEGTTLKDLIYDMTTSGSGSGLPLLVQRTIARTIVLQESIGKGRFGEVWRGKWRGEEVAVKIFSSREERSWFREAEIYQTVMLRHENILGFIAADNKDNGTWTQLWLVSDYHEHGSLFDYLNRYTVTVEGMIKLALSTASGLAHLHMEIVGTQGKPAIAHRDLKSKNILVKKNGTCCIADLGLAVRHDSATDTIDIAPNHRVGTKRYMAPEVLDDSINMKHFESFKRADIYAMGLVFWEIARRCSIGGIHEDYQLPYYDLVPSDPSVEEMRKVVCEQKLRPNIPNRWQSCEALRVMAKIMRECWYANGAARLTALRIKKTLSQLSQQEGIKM
The experiment in a line: ADP-GLO Kinases assay, inhibitory activity on ALK5. Type of experiment: biochemical. The following applies: Table 10; purified recombinant human ALK5 2.6 nM, ADP-Glo, 25° C., 150 min incubation. As to the method:
The enzymatic activity of compounds of the present invention was monitored measuring the formation of ADP using the ADP-GLO Kinases assay. Following the incubation of the purified enzyme, a substrate and ATP, the produced ADP was converted into ATP, which in turn was converted into light by Ultra-Glo Luciferase. The luminescent signal positively correlated with ADP amount and kinase activity. Briefly, the kinase reaction was performed by incubating 2.6 nM of the purified, commercially available human ALK5 (recombinant TGF β1 N-term GST-tagged, 80-end), a final concentration of TGFβ1 peptide 94.5 μM (Promega, T36-58) and ultra-pure ATP (Promega V915B). The ATP concentration was set at the Km value (concentration of substrate which permits the enzyme to achieve half maximal velocity (Vmax)) of ALK5 (5 μM). All reactions/incubations were performed at 25° C. Compound and ALK5 kinase were mixed and incubated for 15 mins. Reactions were initiated by addition of ATP at a final concentration in the assay of 0.83 μM. After an incubation of 150 min, the reaction was stopped, and ADP production detected with ADP-Glo kit according to manufacturer's indications. The assay was performed in 384-well format and was validated using a selection of reference compounds that was tested in 11 point concentration-response curve.
Compounds of the examples C1, C2 and C3 were tested in the same in vitro assay described above.
In general terms: ADP-Glo turns the ADP formed in a reaction into a luminescent signal.
In the case of `CN(CCNC(=O)c1cnccc1Nc1cc(-c2cc(Cl)ccc2F)nc2c1OCCN2)C1COC1` [Example 43, 4-{[6-(5-chloro-2-fluorophenyl)-2H,3H,4H-pyrido[3,2-b][1,4]oxazin-8-yl]amino}-N-{2-[methyl(oxetan-3-yl)amino]ethyl}pyridine-3-carboxamide], the IC50 (in general, the concentration needed to halve the response being measured) is 1 to 5 nM.
Turning to `CN1CCC(CCNC(=O)c2cc3c(Nc4cc(-c5cc(Cl)ccc5F)nc5c4OCCN5)ccnc3[nH]2)CC1` [Example 48, 4-{[6-(5-chloro-2-fluorophenyl)-2H,3H,4H-pyrido[3,2-b][1,4]oxazin-8-yl]amino}-N-[2-(1-methylpiperidin-4-yl)ethyl]-1H-pyrrolo[2,3-b]pyridine-2-carboxamide], the IC50 is under 1 nM.
On the same count and under the same terms, the same measure for `CS(=O)(=O)N1CCN(CCNC(=O)c2cnccc2Nc2cc(-c3cc(Cl)ccc3F)nc3c2OCCN3)CC1` [Example 46, 4-{[6-(5-chloro-2-fluorophenyl)-2H,3H,4H-pyrido[3,2-b][1,4]oxazin-8-yl]amino}-N-[2-(4-methanesulfonylpiperazin-1-yl)ethyl]pyridine-3-carboxamide]: 1 to 5 nM; for `Fc1ccc(Cl)cc1-c1cc(Nc2ccncc2)c2c(n1)NCCO2` [Example 1, N-[6-(5-chloro-2-fluorophenyl)-2H,3H,4H-pyrido[3,2-b][1,4]oxazin-8-yl]-pyridine-4-amine]: under 1 nM; for `CNC(=O)c1cc(Nc2cc(-c3cc(Cl)ccc3F)nc3c2OCCN3)ccn1` [Example 6, 4-{[6-(5-chloro-2-fluorophenyl)-2H,3H,4H-pyrido[3,2-b][1,4]oxazin-8-yl]amino}-N-methylpyridine-2-carboxamide]: 5 to 10 nM.
Still for that read-out and setting: the same measure for `COC(=O)c1cnccc1Nc1cc(-c2cc(Cl)ccc2F)nc2c1OCCN2` [Example 17, methyl 4-{[6-(5-chloro-2-fluorophenyl)-2H,3H,4H-pyrido[3,2-b][1,4]oxazin-8-yl]amino}pyridine-3-carboxylate]: under 1 nM; for `Cc1cccc(-c2cc(Nc3ccnc4[nH]cnc34)c3c(n2)NCCO3)n1` [Example 40, N-{3H-imidazo[4,5-b]pyridin-7-yl}-6-(6-methylpyridin-2-yl)-2H,3H,4H-pyrido[3,2-b][1,4]oxazin-8-amine]: under 1 nM; for `CC(C)NC(=O)c1cnccc1Nc1cc(-c2cc(Cl)ccc2F)nc2c1OCCN2` [Example 22, 4-{[6-(5-chloro-2-fluorophenyl)-2H,3H,4H-pyrido[3,2-b][1,4]oxazin-8-yl]amino}-N-(propan-2-yl)pyridine-3-carboxamide]: 1 to 5 nM.
Same read-out and setting: the same measure for `Fc1ccc(-c2cc(Nc3ccncc3)c3c(n2)NCCO3)nc1` [Example 26, N-[6-(5-fluoropyridin-2-yl)-2H,3H,4H-pyrido[3,2-b][1,4]oxazin-8-yl]pyridin-4-amine]: 5 to 10 nM.
In the case of `Cc1ccc(F)c(-c2cc(Nc3ccncc3)c3c(n2)NCCO3)c1` [Example 8, N-[6-(2-fluoro-5-methylphenyl)-2H,3H,4H-pyrido[3,2-b][1,4]oxazin-8-yl]pyridin-4-amine], the IC50 was under 1 nM.
The same measure, in the same setting: the same measure for `Fc1ccc(Cl)cc1-c1cc(Nc2ccnc3[nH]ccc23)c2c(n1)NCCO2` [Example 31, 6-(5-chloro-2-fluorophenyl)-N-{1H-pyrrolo[2,3-b]pyridin-4-yl}-2H,3H,4H-pyrido[3,2-b][1,4]oxazin-8-amine]: under 1 nM; for `Fc1ccc(F)c(-c2cc(Nc3ccncc3)c3c(n2)NCCO3)c1` [Example 14, N-[6-(2,5-difluorophenyl)-2H,3H,4H-pyrido[3,2-b][1,4]oxazin-8-yl]pyridin-4-amine]: 1 to 5 nM.
With `Cc1cccc(-c2cc(Nc3ccnc4[nH]ccc34)c3c(n2)NCCO3)n1` [Example 45, 6-(6-methylpyridin-2-yl)-N-{1H-pyrrolo[2,3-b]pyridin-4-yl}-2H,3H,4H-pyrido[3,2-b][1,4]oxazin-8-amine], the IC50 was under 1 nM.
The same measure, in the same setting: the same measure for `Clc1cccc(-c2cc(Nc3ccncc3)c3c(n2)NCCO3)c1` [Example 15, N-[6-(3-chlorophenyl)-2H,3H,4H-pyrido[3,2-b][1,4]oxazin-8-yl]pyridin-4-amine]: 1 to 5 nM; for `O=C(O)c1cnccc1Nc1cc(-c2cc(Cl)ccc2F)nc2c1OCCN2` [Example 16, lithium 4-{[6-(5-chloro-2-fluorophenyl)-2H,3H,4H-pyrido[3,2-b][1,4]oxazin-8-yl]amino}pyridine-3-carboxylate]: under 1 nM; for `O=C(CCN1CCOCC1)Nc1cc(Nc2cc(-c3cc(Cl)ccc3F)nc3c2OCCN3)ccn1` [Example 20, N-(4-{[6-(5-chloro-2-fluorophenyl)-2H,3H,4H-pyrido[3,2-b][1,4]oxazin-8-yl]amino}pyridin-2-yl)-3-(morpholin-4-yl)propanamide]: under 1 nM.
Same read-out and setting: next, `O=C(NCCN(CCO)CCO)c1cnccc1Nc1cc(-c2cc(Cl)ccc2F)nc2c1OCCN2` [Example 37, N-{2-[bis(2-hydroxyethyl)amino]ethyl}-4-{[6-(5-chloro-2-fluorophenyl)-2H,3H,4H-pyrido[3,2-b][1,4]oxazin-8-yl]amino}pyridine-3-carboxamide]: under 1 nM; `Cc1cccc(-c2cc(Nc3ccnc4[nH]ncc34)c3c(n2)NCCO3)n1` [Example 41, 6-(6-methylpyridin-2-yl)-N-{1H-pyrazolo[3,4-b]pyridin-4-yl}-2H,3H,4H-pyrido[3,2-b][1,4]oxazin-8-amine]: under 1 nM; `Fc1ccc(-c2cc(Nc3ccncc3)c3c(n2)NCCO3)cc1Cl` [Example 19, N-[6-(3-chloro-4-fluorophenyl)-2H,3H,4H-pyrido[3,2-b][1,4]oxazin-8-yl]pyridin-4-amine]: 5 to 10 nM.
Same read-out and setting: next, `Fc1ccc(Cl)cc1-c1cc(Nc2ccnc3[nH]cnc23)c2c(n1)NCCO2` [Example 35, 6-(5-chloro-2-fluorophenyl)-N-{3H-imidazo[4,5-b]pyridin-7-yl}-2H,3H,4H-pyrido[3,2-b][1,4]oxazin-8-amine]: under 1 nM.

The same experiment, now with this note: Table 11, comparative examples; same in vitro assay.
`Fc1ccc(Cl)cc1-c1cc(-c2ccncc2)c2c(n1)NCCO2` [Example C1, 4-[6-(5-chloro-2-fluorophenyl)-2H,3H,4H-pyrido[3,2-b][1,4]oxazin-8-yl]pyridine, reference compound] showed a 50% inhibitory concentration (IC50) of 6500 nM.
The compound `Oc1ccc(-c2cc(-c3cc(Cl)ccc3F)nc3c2OCCN3)cc1` [Example C2, 4-[6-(5-chloro-2-fluorophenyl)-2H,3H,4H-pyrido[3,2-b][1,4]oxazin-8-yl]phenol, reference compound] registered an IC50 of 1700 nM.
